This note sets out measurements from PubChem BioAssay AID1626 (SRMLSC, 2009).

The test relates to M. tuberculosis H37Rv growth inhibition. Nature of the test: M. tuberculosis H37Rv growth inhibitors, H37Rv strain (AID 1626). To be noted: for IC90: measured here: IC90 against H37Rv; for CC50: measured here: Vero cell cytotoxicity.

As for `Fc1ccc(C(OCCN2CCN(CCCc3ccccc3)CC2)c2ccc(F)cc2)cc1`, the IC50 was 4.22 µM, the concentration for an effect of 90% (IC90) came to 5.59 µM and the CC50 stood at 19.2 µM.
As for `CCOC(=O)CN(C#N)c1nc(N(C)C)nc(N(C)C)n1`, the IC50 was 9.34 µM and the IC90 was determined as 11.7 µM.
Take `Cc1nc(N2CCOCC2)c2c(C)c(C(=O)Nc3ccc(C(F)(F)F)cc3)sc2n1`: the CC50 was above 40 µM.
On to `O=C(C[n+]1cc(-c2ccc(F)cc2)n2c1CCC2)N1c2ccccc2Sc2ccccc21`, for which the IC50 is 38.7 µM and the 90% effect concentration (IC90) is above 100 µM.
As to `O=C(CSc1nc2ccccc2o1)Nc1nc(-c2ccccc2)c(-c2ccccc2)s1`, the IC50 was 10.1 µM, the IC90 is above 100 µM and the CC50 was above 40 µM.
In the case of `Nc1scc(-c2ccncc2)c1Cl`, the IC50 is 5.32 µM, the IC90 is above 100 µM and the half-maximal cytotoxic concentration (CC50) is above 40 µM.
For the compound `COC(=O)CN1C(c2cccc(Cl)c2)=Nc2ccc(Cl)cc2C1c1ccccc1` (centres undefined), the IC50 was 11.9 µM and the concentration for an effect of 90% (IC90) came out at 13.6 µM.
Turning to `CC(C)c1ccc(Nc2nc(NCc3ccco3)nc(N3CCOCC3)n2)cc1`, the IC50 is 4.99 µM, the 90% effect concentration (IC90) was 8.29 µM and the 50% cytotoxic concentration (CC50) amounted to 34.6 µM.
`O=c1cc(C(Cl)(Cl)Cl)oc2c1ccc1ccccc12`: the IC50 is 1.1 µM, the IC90 worked out at 1.8 µM and the CC50 was 10.9 µM.
Take `COCCCN=C1NN=C(c2cc(C)n(Cc3ccccc3Cl)c2C)CS1`: the IC50 was 11.3 µM, the IC90 was 12.1 µM and the CC50 stood at 16.3 µM.
For `CC(C)OC(=O)CSc1nnc(-c2ccc(Cl)cc2Cl)o1`, the IC50 was below 0.195 µM and the IC90 was 9.2 µM.
On to `COC(=O)CSc1nc(-c2ccccc2)c2c(c1C#N)CCCC2`, for which the IC50 was 5.24 µM and the IC90 stood at 8.33 µM.
For `Cc1nn(-c2ccccc2)c(N)c1C(c1ccc(C(C)C)cc1)c1c(C)nn(-c2ccccc2)c1N`, the IC50 is 8.73 µM, the IC90 worked out at 13 µM and the half-maximal cytotoxic concentration (CC50) is above 40 µM.
Turning to `Cc1cccc(-c2nsc(SCC(=O)NCC3CCCO3)n2)c1` (centres undefined), the IC50 was 1.19 µM and the IC90 was determined as 4.2 µM.
As for `O=C1c2ccccc2C(Nc2ccc(-c3nc4ccccc4[nH]3)cc2)N1Cc1ccco1` (centres undefined), the IC50 was 9.03 µM, the IC90 worked out at 20.8 µM and the CC50 was above 40 µM.
Consider `COc1ccc(OCCCC(=O)Nc2cccc(SC)c2)cc1`, for which the IC90 is above 100 µM.
In the case of `CCOc1ccc2c3c(c(=O)oc2c1OCC)CCCC3`, the IC50 was 7.11 µM and the IC90 was 12.8 µM.
Consider `COc1cc(OC)c(-c2nn3c(C4CCCCC4)nnc3s2)cc1OC`, for which the IC50 was 2.2 µM and the 90% effect concentration (IC90) stood at 6.47 µM.
As for `CN(c1ccccc1)c1nc(N2CCCC2)nc(-n2ccnc2)n1`, the IC50 was 3.05 µM, the IC90 came to 3.54 µM and the 50% cytotoxic concentration (CC50) is above 40 µM.
In the same order, the values of `CCN(Cc1ccccc1)c1ccc(/C=N/N=C(N)N)cc1` are 5.5 µM, 6.21 µM and 8.71 µM.
As for `Oc1cccc2ccc(/C=C/c3c(F)cccc3Cl)nc12`, the IC50 was 1.37 µM, the IC90 came to 6.64 µM and the CC50 is above 40 µM.
With `COC(=O)CSc1nc(N)c2c3c(sc2n1)C(c1ccccc1)SC(c1ccccc1)C3` (centres undefined), the IC50 was 14.4 µM, the IC90 is above 100 µM and the CC50 was determined as 7.1 µM.
In the same order, the values of `O=C(/C=C/c1ccnc2ccccc12)c1cccs1` are 17.6 µM, 24.6 µM and above 40 µM.
On to `Cc1ccc(S/C=C\C(=O)c2ccccc2)cc1`, for which the 50% inhibitory concentration (IC50) was 5.51 µM and the 90% effect concentration (IC90) turned out to be 8.53 µM.
`COc1ccc(N2CCN(CC(=O)Nc3nc4c(s3)CC(C)CC4)CC2)cc1` (centres undefined): the 50% inhibitory concentration (IC50) was 4.42 µM and the IC90 turned out to be 49.1 µM.
As to `COc1ccc(NC2=NCC(Cc3ccc(Br)cc3)S2)cc1` (centres undefined), the half-maximal inhibitory concentration (IC50) is 10.2 µM, the concentration for an effect of 90% (IC90) was determined as 15.9 µM and the CC50 is above 40 µM.
Consider `Cc1ccc2c(c1)c1c3n2CCN=C3CCC1`, for which the IC50 was 7.43 µM and the IC90 was 15.8 µM.
As for `CC1CCc2nc(NC(=O)CN3CCN(c4ccccc4)CC3)sc2C1` (centres undefined), the IC50 was 24.6 µM and the IC90 is above 100 µM.
In the case of `CCOC(=O)N1CCN(C(=O)CSc2nnc(-c3cc(OC)cc(OC)c3)o2)CC1`, the IC50 was 2.82 µM and the concentration for an effect of 90% (IC90) is 7.03 µM.
On to `Nc1ccc(C(=O)O)c(O)c1`, for which the IC50 is below 0.195 µM and the concentration for an effect of 90% (IC90) was above 100 µM.
Take `CCOC(=O)c1cccc(N/C=C/C(=O)c2ccc(OC)c(OC)c2)c1`: the IC50 was 24 µM and the IC90 is above 100 µM.
As to `O=C(Nc1nc(-c2ccccn2)cs1)C1CCCC1`, the IC50 was 2.54 µM, the IC90 is 5.83 µM and the CC50 is above 40 µM.
With `COc1ccc(-c2nnc(SCC(=O)Nc3cc(C)on3)o2)cc1`, the half-maximal inhibitory concentration (IC50) was 3.86 µM, the IC90 is 6.19 µM and the half-maximal cytotoxic concentration (CC50) is above 40 µM.
`O=C(O)c1ccc(Nc2nc(-c3cc4ccccc4oc3=O)cs2)cc1O`: the IC50 is 20.1 µM and the IC90 is above 100 µM.
For the compound `CC[C@H]1CC2CN3CCc4c([nH]c5c([C@H]6C[C@H]7[C@H](CC)CN(C)[C@@H](Cc8c6[nH]c6ccccc86)[C@H]7C(=O)OC)c(OC)ccc45)C(C(=O)OC)(C2)C13`, the IC50 was 5.85 µM, the IC90 is 7.6 µM and the CC50 stood at 20.8 µM.
Regarding `O=c1oc2ccc3ccccc3c2cc1-c1nc2ccccc2o1`, the IC50 is 2.79 µM and the IC90 is 7.33 µM.
`O=C(CCl)Nc1ccccc1C(=O)NCc1ccccc1`: the IC50 was 8.16 µM, the 90% effect concentration (IC90) came to 21.2 µM and the CC50 turned out to be 24.4 µM.
Take `CCOC(=O)COc1ccc2c(=O)c(-c3ccccc3)coc2c1`: the IC50 is below 0.195 µM and the IC90 was 0.755 µM.
For `c1ccc(CC2CCN(c3nc4ccccc4n4cnnc34)CC2)cc1`, the IC50 is 1.77 µM, the IC90 came to 3.44 µM and the CC50 is above 40 µM.
Turning to `O=C(COc1ccc(Nc2ccccc2)cc1)OCC(=O)N1CCCCC1`, the IC50 was 19.5 µM and the IC90 is above 100 µM.
Consider `Cc1cccc(OCC(O)Cn2c(=N)n(CCN3CCCCC3)c3ccccc32)c1` (centres undefined), for which the IC50 was 5.87 µM, the IC90 is 6.69 µM and the CC50 turned out to be 35.8 µM.
With `COc1ccc(N/C=C/C(=O)c2sc(-c3ccccc3)nc2C)cc1`, the IC50 was 69.2 µM, the IC90 is above 100 µM and the CC50 is above 40 µM.
Take `COc1ccc(-c2ccc([C@H]3[C@@H]4C=CCC[C@@]4(C)C(=O)N3Cc3ccccc3)c(F)c2)cc1OC`: the IC50 is 13 µM, the IC90 is above 100 µM and the 50% cytotoxic concentration (CC50) is 39.2 µM.
For the compound `CCOC(=O)c1ccc(NCc2nc3ccccc3[nH]2)cc1`, the IC50 was 43.5 µM and the IC90 was above 100 µM.
For `Cc1ccccc1OCc1n(CC(=O)OC2CC(C)CCC2C(C)C)c2ccccc2[n+]1C` (centres undefined), the IC50 is 3.74 µM, the IC90 was determined as 5.17 µM and the 50% cytotoxic concentration (CC50) turned out to be 24.4 µM.
Take `Fc1cccc(-c2cc3nc(-c4ccccc4)cc(N4CCC5(CC4)OCCO5)n3n2)c1`: the IC90 was above 100 µM.
In the case of `CCOC(=O)c1nc2sc3c(c2c(=O)[nH]1)CCC(C)C3` (centres undefined), the IC50 was 10.4 µM and the IC90 was above 100 µM.
